Test results as given in patent publication US4239767A, “Antimycotic diaryloxy-imidazolyl-O,N-acetals” (Bayer Aktiengesellschaft, priority 1974, dated 1980).
Values after ≈ are worked out from the molar mass of the structure shown.

Legend:
[1] = tested on: spores; conditions: prior art / commercially available products; cited from earlier work
[2] = tested on: Torulopsis glab.; test: in vitro series dilution test (MIC), Torulopsis glab.; assay type: cell-based; conditions: 28° C., 24-96 hours, 10^3 germs/ml; read-out: MIC values when used against Torulopsis glab.
Description: (§1) The in vitro test was carried out as a series dilution test. Amount inoculated: 10^3 germs/ml. The nutrient substrates used were Sabouraud's milieu d'epreuve, meat stock/glucose bouillon, malt extract agar and Francis's blood agar. The incubation temperature was 28° C. and the incubation time 24-96 hours.

[3] = tested on: Asp. fum.; test: in vitro series dilution test (MIC), Asp. fum.; assay type: cell-based; conditions: Aspergillus fumigatus; 28° C., 24-96 hours, 10^3 germs/ml; read-out: MIC values when used against Asp. fum.
Description: as §1

[4] = tested on: Sporothrix Schenckii; test: in vitro series dilution test (MIC), Sporothrix Schenckii; assay type: cell-based; conditions: 28° C., 24-96 hours, 10^3 germs/ml, read-out: MIC values when used against Sporothrix Schenckii
Description: as §1

[5] = tested on: Trich. ment.; test: in vitro series dilution test (MIC), Trich. ment.; assay type: cell-based; conditions: Trichophyton mentagrophytes; 28° C., 24-96 hours, 10^3 germs/ml; read-out: MIC values when used against Trich. ment.
Description: as §1

[6] = tested on: Cand. alb.; test: in vitro series dilution test (MIC), Cand. alb.; assay type: cell-based; conditions: 28° C., 24-96 hours, 10^3 germs/ml; read-out: MIC values when used against Cand. alb.
Description: as §1

[7] = tested on: candidosis; test: in vivo action on oral administration, candidosis of mice; conditions: 100 mg/kg of body weight, twice daily, Control 5
Text: (§2) The table which follows summarizes in the vivo action of the preparations claimed on oral administration--for the models of candidosis of mice and trichophytia of mice--and on local administration--for the model of trichophytia of guinea-pigs.

[8] = tested on: trichophytia; test: in vivo action on oral administration, trichophytia of mice; design: key: ++++: very good action = no sign of; +++: good action = very slight sign of; ++: action = slight loss of hair; +: slight action = loss of hair, squamation; conditions: 100 mg/kg of body weight, twice daily, Control pronounced dermatophytosis
Text: as §2

[9] = tested on: trichophytia; test: in vivo action on local administration, trichophytia of guinea-pigs; design: key: ++++: very good action = no sign of; +++: good action = very slight sign of; ++: action = slight loss of hair; +: slight action = loss of hair, squamation; conditions: 1% strength solution once a day from the 3rd to the 13th day after infection, Control pronounced dermatophytosis
Text: as §2

[10] = tested on: Trich. ment.; test: sporocidal action, Trich. ment. spores; assay type: cell-based, Trichophyton mentagrophytes; conditions: 10 γ of preparation/ml, 72 hours; Control 10^5 = mycelium
Description: (§3) About 10^4 spores of Trich. ment. or Trich. Quinckeanum or Aspergillus fumigatus per ml are suspended in physiological NaCl solution and the stated preparations are added in concentrations of 1, 5, 10, 50 and 100 y/ml of suspending solution. The spore suspensions are incubated for 24, 48, 72, 96, 120 and 240 hours, 0.1 ml are withdrawn per concentration and per tube after the stated incubation times and spread homogeneously on malt extract Petri dishes, and the number of spores which still germinate is counted, after 48 hours' incubation time at 28° C., in comparison to untreated controls. The table which follows lists, for the individual preparations, the number of spores which still germinate after an exposure period of 72 hours at preparation concentrations of 10 γ/ml.

[11] = tested on: Aspergillus fum.; test: sporocidal action, Aspergillus fumigatus spores; assay type: cell-based; conditions: 10 γ of preparation/ml, 72 hours; Control 10^5 = mycelium
Description: as §3

Row | MIC [2] [µg/mL] | MIC [3] [µg/mL] | MIC [4] [µg/mL] | MIC [5] [µg/mL] | MIC [6] [µg/mL] | Structure (SMILES) | Therapeutic activity, candidosis, % survival [7] [%] | Therapeutic activity, trichophytia, oral administration [8] | Therapeutic activity, trichophytia, local application [9] | Number of spores still capable of germination, Trich. ment. [10] | Number of spores still capable of germination, Aspergillus fum. [11] | also measured
1 | – | – | – | – | – | COC1=CC(=O)C[C@@H](C)[C@]12Oc1c(Cl)c(OC)cc(OC)c1C2=O [Griseofulvin] | – | – | – | – | – | sporocidal activity [1]: not present
2 | – | – | – | – | – | C[C@@H]1[C@H](O)[C@@H](C)/C=C/C=C/CC/C=C/C=C/C=C/C=C/C(O[C@H]2O[C@H](C)[C@@H](O)[C@H](N)[C@@H]2O)CC2O[C@](O)(CC(O)C(O)CCC(O)CC(O)CC(O)CC(=O)O[C@H]1C)CC(O)C2C(=O)O (stereo partly drawn) [Nystatin] | – | – | – | – | – | sporocidal activity [1]: not present
3 | 4 (≈ 10.8 µM) | 2 to 4 (≈ 5.39 to 10.8 µM) | 0.1 (≈ 0.27 µM) | < 1 | 4 (≈ 10.8 µM) | CC(C)(C)C(O)C(Oc1ccc(-c2ccc(Cl)cc2)cc1)n1ccnc1 (stereo not drawn) [drawing 8] | – | – | – | – | – | –
4 | 4 (≈ 11.4 µM) | < 1 | 0.5 (≈ 1.43 µM) | < 1 | 4 (≈ 11.4 µM) | CC(C)(C)C(O)C(Oc1ccc(Cc2ccccc2)cc1)n1ccnc1 (stereo not drawn) [drawing 9] | – | – | – | – | – | –
5 | 4 (≈ 9.99 µM) | < 1 | 0.5 (≈ 1.25 µM) | < 1 | 2 to 4 (≈ 4.99 to 9.99 µM) | CC(C)(C)C(O)C(Oc1ccc(S(=O)(=O)c2ccccc2)cc1)n1ccnc1 (stereo not drawn) [drawing 10] | – | – | – | – | – | –
6 | 2 (≈ 4.15 µM) | 4 (≈ 8.3 µM) | 0.1 (≈ 0.207 µM) | 4 (≈ 8.3 µM) | 8 (≈ 16.6 µM) | CC(C)(C)C(=O)C(Oc1c(Cl)cc(-c2ccc(Br)cc2)cc1Cl)n1ccnc1 (stereo not drawn) [drawing 11] | – | – | – | – | – | –
7 | 4 (≈ 11.5 µM) | 2 (≈ 5.74 µM) | 2 (≈ 5.74 µM) | < 1 | 16 (≈ 45.9 µM) | CC(C)(C)C(=O)C(Oc1ccc(Cc2ccccc2)cc1)n1ccnc1 (stereo not drawn) [drawing 12] | – | – | – | – | – | –
8 | 2 (≈ 5.02 µM) | 1 (≈ 2.51 µM) | 2 (≈ 5.02 µM) | 64 (≈ 161 µM) | 4 (≈ 10 µM) | CC(C)(C)C(=O)C(Oc1ccc(S(=O)(=O)c2ccccc2)cc1)n1ccnc1 (stereo not drawn) [drawing 13] | – | – | – | – | – | –
9 | 4 (≈ 7.6 µM) | 4 (≈ 7.6 µM) | 4 (≈ 7.6 µM) | 8 (≈ 15.2 µM) | 8 (≈ 15.2 µM) | CC(C)(C)C(=O)C(Oc1c(Cl)cc(-c2ccc(Br)cc2)cc1Br)n1ccnc1 (stereo not drawn) [drawing 14] | – | – | – | – | – | –
10 | – | – | – | – | – | CC(C)(C)C(O)C(Oc1ccc(-c2ccc(Cl)cc2)cc1)n1ccnc1 (stereo not drawn) [drawing 15] | 80 | +++ | ++++ | – | – | –
11 | – | – | – | – | – | CC(C)(C)C(O)C(Oc1ccc(Cc2ccccc2)cc1)n1ccnc1 (stereo not drawn) [drawing 16] | 60 | ++ | +++ | – | – | –
12 | – | – | – | – | – | CC(C)(C)C(O)C(Oc1ccc(S(=O)(=O)c2ccccc2)cc1)n1ccnc1 (stereo not drawn) [drawing 17] | 80 | ++ | +++ | – | – | –
13 | – | – | – | – | – | CC(C)(C)C(=O)C(Oc1c(Cl)cc(-c2ccc(Br)cc2)cc1Cl)n1ccnc1 (stereo not drawn) [drawing 18] | 50 | ++ | +++ | – | – | –
14 | – | – | – | – | – | CC(C)(C)C(=O)C(Oc1ccc(Cc2ccccc2)cc1)n1ccnc1 (stereo not drawn) [drawing 19] | 50 | +++ | ++ | – | – | –
15 | – | – | – | – | – | CC(C)(C)C(=O)C(Oc1ccc(S(=O)(=O)c2ccccc2)cc1)n1ccnc1 (stereo not drawn) [drawing 20] | 80 | ++ | +++ | – | – | –
16 | – | – | – | – | – | CC(C)(C)C(=O)C(Oc1c(Cl)cc(-c2ccc(Br)cc2)cc1Br)n1ccnc1 (stereo not drawn) [drawing 21] | 40 | + | ++ | – | – | –
17 | – | – | – | – | – | CC(C)(C)C(O)C(Oc1ccc(-c2ccc(Cl)cc2)cc1)n1ccnc1 (stereo not drawn) [drawing 22] | – | – | – | 80 | 35 | –
18 | – | – | – | – | – | CC(C)(C)C(O)C(Oc1ccc(Cc2ccccc2)cc1)n1ccnc1 (stereo not drawn) [drawing 23] | – | – | – | 110 | 40 | –
19 | – | – | – | – | – | CC(C)(C)C(O)C(Oc1ccc(S(=O)(=O)c2ccccc2)cc1)n1ccnc1 (stereo not drawn) [drawing 24] | – | – | – | 60 | 70 | –
20 | – | – | – | – | – | CC(C)(C)C(=O)C(Oc1c(Cl)cc(-c2ccc(Br)cc2)cc1Cl)n1ccnc1 (stereo not drawn) [drawing 25] | – | – | – | 90 | 40 | –
21 | – | – | – | – | – | CC(C)(C)C(=O)C(Oc1ccc(Cc2ccccc2)cc1)n1ccnc1 (stereo not drawn) [drawing 26] | – | – | – | 40 | 60 | –
22 | – | – | – | – | – | CC(C)(C)C(=O)C(Oc1ccc(S(=O)(=O)c2ccccc2)cc1)n1ccnc1 (stereo not drawn) [drawing 27] | – | – | – | 10^5 | 70 | –
23 | – | – | – | – | – | CC(C)(C)C(=O)C(Oc1c(Cl)cc(-c2ccc(Br)cc2)cc1Br)n1ccnc1 (stereo not drawn) [drawing 28] | – | – | – | 60 | 45 | –
